# Test results reported in patent US20140187505A1, “Cardiac Glycosides to Treat Cystic Fibrosis and Other IL-8 Dependent Disorders” (priority 2002, published 2014).
# Where “and” joins values, the source holds several entries; their conditions need not be identical. Equal values may be shown once. Read-outs that look alike come from different tables or passages of the source.
# Experiments:
# [1] = system: guinea-pig heart Na^+-K^+-ATPase; conditions: cited from earlier work
# [2] = system: rat PAIII castration-resistant prostate cancer cells; assay: MicroRNA expression in cultured PAIII cells (TaqMan, DDCt); assay type: cell-based; conditions: 6 nM Digitoxin, 24 hours
# [3] = system: rat PAIII castration resistant prostate cancer cells; assay: EMT mRNA expression in cultured PAIII cells (FPKM); conditions: 6 nM Digitoxin, 24 hours
# [4] = system: Cystic Fibrosis IB-3 Lung Epithelial Cells; assay: Secretion of proinflammatory mediators from IB-3 cells (ELISA, 24 hours); assay type: cell-based; conditions: Homo sapiens, Epithelial cell
# [5] = system: IL-6 and CINC1 (rat IL-8 equivalent); assay: Serum IL-6 and CINC1 in rats bearing PAIII tumors; assay type: in vivo; conditions: digitoxin 0.03 mg/kg daily for 30 days, serum day 30
# [6] = system: HeLa cervical cancer cells; assay: cells; conditions: Homo sapiens, 24 h, read-out: IC50 dose for cell death
# [7] = system: PAIII Castration Resistant Prostate Cancer cells; parameters: species or system Lobund-Wistar rats; conditions: rat, in vivo
# [8] = system: TNFa/NFkB signaling pathway; assay: Reverse Phase Protein Microarrays of TNFa/NFkB pathway phosphorylation in IB3-1 cells; assay type: cell-based, human; conditions: IC-90 concentrations
# Text: Previously published data have implicated a dysfunctional TNFa/NFkB signaling pathway as responsible for the pro-inflammatory phenotype of the CF lung (Eidelman et al, 2001a). […] IC-90 means a concentration of drug that blocks 90% of IL-8 secretion from the IB3-1 cells. […] (See FIG. 1).
# [9] = octanol/water (20 mM TRIS-HCl, pH 7.4), cited from earlier work
# PAIII cancer cells = system: PAIII cancer cells; parameters: species or system Lobund-Wistar rats; conditions: rat, in vivo
# [10] = system: clear cell renal carcinoma metastatic to the brain and spinal cord; conditions: human, in vivo
# [11] = system: Human castration-resistant prostate cancer PC3 cells; assay: EMT protein expression in PC3 cells (Western blot); assay type: cell-based; conditions: 24 hours, vehicle 100%
# [12] = for 70 kg man, cited from earlier work
# [13] = system: collagen induced arthritis (CIA) mice; conditions: mouse, in vivo
# [14] = eluent acetonitrile/water 45:55; cited from earlier work
# [15] = system: IL-8 secretion from cystic fibrosis lung epithelial IB3-1 cells; conditions: Homo sapiens, IB3-1, 48 h
# [16] = system: HeLa cervical cancer cells; conditions: human
# [17] = system: rat lungs infected with influenza; assay: Cytokines and chemokines in lungs of influenza-infected cotton rats; assay type: in vivo; conditions: 3, 10 or 30 microgram/kg ip daily, lung harvested day 4
# Experimental: Fifteen standard cotton rats were divided into five groups of three each. […] The rats in the treatment groups were pre-treated on the preceding day with either 3, 10, or 30 micro-g/kg intraperitoneally. […] Each rat was then treated on Day 1 with 100 microliters of Wuhan Strain influenza virus (titer-10^8 TC-IC 50/ml) (IC is […]) by intra-nasal administration to induce lung inflammation.
# The rats were sacrificed on the last day 4 hrs after treatment.
# Pieces of lung was harvested on day 4 and homogenized in PBS by glass-on-glass homogenizer in 1 gram/ml. Samples are frozen on dry ice, and then transferred to −80° C. for analysis. […] Rodents lack IL-8 and instead have GRO/KC and MIP-2. […] GM-CSF was undetectable in the tissue under any conditions.
# [18] = mobile phase: methanol/water 30:70; cited from earlier work
smiles,measurement,setting,value
C[C@H]1O[C@@H](O[C@H]2[C@@H](O)C[C@H](O[C@H]3[C@@H](O)C[C@H](O[C@H]4CC[C@@]5(C)[C@H](CC[C@@H]6[C@@H]5CC[C@]5(C)[C@@H](C7=CC(=O)OC7)CC[C@]65O)C4)O[C@@H]3C)O[C@@H]2C)C[C@H](O)[C@@H]1O [digitoxin],ID50,[1],0.31 ± 0.03 ×10^−4 mol l^−1
same,"miR467b DDCt, Digitoxin - Vehicle",[2],20.10
same,"miR-122 DDCt, Digitoxin - Vehicle",[2],11.005
same,"miR-291a-3p DDCt, Digitoxin - Vehicle",[2],19.13
same,"miR-347 DDCt, Digitoxin - Vehicle",[2],4.34
same,"miR-376a DDCt, Digitoxin - Vehicle",[2],−32.75(↑)
same,"miR-380-3p DDCt, Digitoxin - Vehicle",[2],16.57
same,"miR-411 DDCt, Digitoxin - Vehicle",[2],4.61
same,"miR-667 DDCt, Digitoxin - Vehicle",[2],7.01
same,"miR-670 DDCt, Digitoxin - Vehicle",[2],−12.11(↑)
same,"miR-879 DDCt, Digitoxin - Vehicle",[2],11.31
same,FOXP3 mRNA % change,[3],−30%
same,Hepatocyte Growth Factor mRNA % change,[3],−50%
same,Igf2r mRNA % change,[3],−40%
same,Vimentin mRNA % change,[3],−10%
same,Zeb2 mRNA % change,[3],−30%
same,activity at 0.01 µM,"[4]; read-out: ICAM1 secretion, % of Control",19%
same,activity at 0.03 µM,"[4]; read-out: ICAM1 secretion, % of control",30%
same,activity at 0.01 µM,"[4]; read-out: IFN-gamma secretion, % of Control",100%
same,activity at 0.03 µM,"[4]; read-out: IFN-gamma secretion, % of control",35%
same,activity at 0.01 µM,"[4]; read-out: IL-1-beta secretion, % of Control",50%
same,activity at 0.03 µM,"[4]; read-out: IL-1-beta secretion, % of control",50%
same,activity at 0.01 µM,"[4]; read-out: IL-6 secretion, % of Control",3%
same,activity at 0.03 µM,"[4]; read-out: IL-6 secretion, % of control",0%
same,activity at 0.01 µM,"[4]; read-out: IL-8 secretion, % of Control",2%
same,activity at 0.03 µM,"[4]; read-out: IL-8 secretion, % of control",0%
same,activity at 0.01 µM,"[4]; read-out: IP-10 secretion, % of Control",100%
same,activity at 0.03 µM,"[4]; read-out: IP-10 secretion, % of control",100%
same,activity at 0.01 µM,"[4]; read-out: TNFalpha secretion, % of Control",5%
same,activity at 0.03 µM,"[4]; read-out: TNFalpha secretion, % of control",0%
same,Serum Interleukin-6 (IL-6),[5]; control 47.9 ± 14.1,37.0 ± 16.9 pg/mL
same,Serum CINC1/KC (rat IL-8 equivalent),[5]; control 60.32 ± 20.6,47.9 ± 14.4 pg/mL
same,IC50,[6],~200 nM
same,"Diameter of metastasis, mm (median)",[7],0.87 mm
same,Number of Pleural Metastases (median),[7],16
same,"Weight of Primary Tumor, gm (median)",[7],19.6 gm
same,"Constitutive phosphorylation of IkBalpha and NFkB, p65",[8],significantly suppressed
same,Phosphorylation of IKKalpha,[8],modestly suppressed
same,P (partition coefficient in octanol/water system),[9],670 and 680
same,P (partition coefficient in octanol/water system),[9]; listed as Digitoxin,670.0 ± 105.0
same,"Diameter of metastatic foci, mm, (median)",PAIII cancer cells,1.76 mm
same,Number of pleural metastatic foci (median),PAIII cancer cells,122
same,Clinical outcome of one cancer patient,[10],positive result
same,E-Cadherin % Band Intensity,[11]; Digitoxin 10 nM,"0%,"
same,SNAI1 % Band Intensity,[11]; Digitoxin 10 nM,"0%,"
same,Vimentin % Band Intensity,[11]; Digitoxin 10 nM,"0%,"
same,E-Cadherin % Band Intensity,[11]; Digitoxin 25 nM,"0%,"
same,SNAI1 % Band Intensity,[11]; Digitoxin 25 nM,"0%,"
same,Vimentin % Band Intensity,[11]; Digitoxin 25 nM,"0%,"
same,Human toxicity limit,[12],3036 nmol
same,"Human toxicity limit, Nmol/L = nM",[12],45.4 nM
same,Human toxicity limit,[12]; ouabain value is lethal dose,>2.5 mg
same,Incidence of CIA (mice that developed symptoms),[13],50%
same,"Inflammatory focus (pannus-like) in metatarsal-phalangeal joints, histopathology",[13],absent
same,Mean paw thickness,[13],decreased
same,Severity of CIA (mean visual score),[13],significant reduction
same,K retentions for reversed-phase high pressure liquid chromatography,[14],3.34
same,IC50,[15]; read-out: IC50 nmol/L in cells,0.9 nmol/L
same,IC50,[15]; read-out: IC50 (K50) for spontaneous IL-8 secretion,~0.9 nmol/L
same,Threshold concentration for an increase in cell death,[16],70 to 100 nM
same,GRO/KC in lung,[17],significant reductions
same,IFNγ in lung,[17],significant reductions
same,IL-13 in lung,[17],No significant changes
same,MCP-1 in lung,[17],significant reductions
same,MIP-2 in lung,[17],significant reductions
same,TGFβ in lung,[17],No significant changes
same,TNFa in lung,[17],significant reductions
same,"RM values (lipophilicity, reversed-phase thin layer chromatography)",[18],1.37
